Assay results taken from ChEMBL document CHEMBL1201862, “PubChem BioAssay data set” (2004).
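Protocol summary: plate cells (96-well), add compound at 5 concentrations, incubate 48 h, interpolate endpoints linearly. The concentration for 50% growth inhibition is given as GI50.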 Activity calls are given as the source filed them. Cut-off read from the data, not from the text of the source: active = GI50 up to about 1.1 µM and inactive = higher.

Columns and labels:
Test in all cases: NCI-60 cell line screen, 48 h
[1] = system: OVCAR-4
[2] = system: SK-MEL-28
[3] = system: HOP-62
[4] = system: M14
[5] = system: TK-10
[6] = system: IGROV-1
[7] = system: HCT-116
[8] = system: RXF 393
[9] = system: 786-0
[10] = system: EKVX
[11] = system: COLO 205
[12] = system: OVCAR-3
[13] = system: HCC 2998
[14] = system: KM12
[15] = system: K562
[16] = system: LOX IMVI
[17] = system: BT-549
[18] = system: T47D
[19] = system: MDA-MB-435
[20] = system: Hs-578T

Measured: GI50

COc1ccc(-c2cc(O)c3ccc(F)cc3n2)cc1
inactive: [1] > 100 µM | [2] > 100 µM | [3] > 100 µM | [4] > 100 µM | [5] > 100 µM | [6] > 100 µM | [7] > 100 µM | [8] > 100 µM | [9] > 100 µM | [10] > 100 µM | [11] > 100 µM | [12] > 100 µM | [13] > 100 µM | [14] 77.4 µM | [15] > 100 µM | [16] > 100 µM

CCCCCCCCCCCCCCCCCCCCCC(=O)Nc1ccn(C2OC(CO)C(O)C2O)c(=O)n1 (stereo unspecified)
inactive: [1] > 100 µM | [2] > 100 µM | [3] 3.11 µM | [4] 4.91 µM | [5] > 100 µM | [6] > 68.9 µM | [7] 6.89 µM | [8] > 100 µM | [9] 9.62 µM | [10] > 100 µM | [11] > 54.2 µM | [12] > 100 µM | [13] > 100 µM | [14] > 100 µM | [15] > 50.6 µM | [16] 9.89 µM

C=C(C)C1Cc2c(cc(O)c3c(=O)c4c(oc23)C(O)Oc2cc(OC)c(OC)cc2-4)O1 (stereo unspecified)
inactive: [1] > 10 µM | [17] > 10 µM | [2] > 10 µM | [3] > 10 µM | [4] > 10 µM | [5] > 10 µM | [18] > 10 µM | [6] > 10 µM | [7] > 10 µM | [19] > 10 µM | [8] > 10 µM | [9] > 10 µM | [10] > 10 µM | [11] > 10 µM | [12] > 10 µM | [13] > 10 µM | [14] > 10 µM | [15] > 10 µM

COC(C/C(=C/CO[Si](C(C)C)(C(C)C)C(C)C)C(=O)Nc1ccccc1I)OC
inactive: [1] 63.8 µM | [2] 59.4 µM | [3] 38.2 µM | [4] 29.9 µM | [20] 29.6 µM | [5] 63.8 µM | [18] 30.4 µM | [6] 2.99 µM | [7] 8.97 µM | [19] 26.7 µM | [8] 2.39 µM | [9] 24.1 µM | [11] 9.75 µM | [12] 21.8 µM | [13] 16.4 µM | [14] 31 µM | [15] 14.9 µM | [16] 16 µM

N#Cc1nc(-c2cccnc2)oc1N
inactive: [1] > 100 µM | [2] > 100 µM | [3] > 100 µM | [20] > 100 µM | [5] > 100 µM | [6] > 100 µM | [7] > 100 µM | [19] > 100 µM | [8] > 100 µM | [9] > 100 µM | [10] > 100 µM | [11] > 100 µM | [12] > 100 µM | [13] > 100 µM | [14] > 100 µM | [15] > 100 µM | [16] > 100 µM

CCCCCCc1ccc(CCCCCCCC(=O)O)o1
inactive: [1] > 100 µM | [17] > 100 µM | [2] > 100 µM | [3] > 100 µM | [4] > 100 µM | [18] > 100 µM | [6] > 100 µM | [7] 68.5 µM | [19] > 100 µM | [9] > 100 µM | [10] > 100 µM | [11] > 100 µM | [12] 34.2 µM | [13] > 100 µM | [14] 70.8 µM | [15] 22.3 µM | [16] > 100 µM

NC(=O)NC(=O)c1cccc(CNc2ccc(C(=O)N[C@@H](CCC(=O)O)C(=O)O)cc2)n1
inactive: [1] > 100 µM | [17] > 100 µM | [2] > 100 µM | [4] > 100 µM | [20] > 100 µM | [5] > 100 µM | [6] > 100 µM | [7] > 100 µM | [19] > 100 µM | [9] > 100 µM | [10] > 100 µM | [11] > 100 µM | [12] > 100 µM | [13] > 100 µM | [14] > 100 µM | [15] > 100 µM | [16] > 100 µM

Cc1cc(C#N)c(Nc2ccccc2[N+](=O)[O-])s1
inactive: [1] 89.3 µM | [17] 19.4 µM | [2] 45.2 µM | [3] 24.3 µM | [4] 32.8 µM | [18] 36.6 µM | [6] 13.8 µM | [7] 23.8 µM | [19] 18.8 µM | [8] 3.96 µM | [9] 49.9 µM | [10] 22.3 µM | [11] 29.6 µM | [12] 21 µM | [13] 40.8 µM | [14] 36.1 µM | [15] 45.2 µM

Cc1ccc(NC(=O)C(=O)CC(=O)C2CCOC2=O)c(C)c1 (stereo unspecified)
inactive: [1] > 100 µM | [2] > 100 µM | [3] > 100 µM | [4] > 100 µM | [5] > 100 µM | [6] > 100 µM | [7] > 100 µM | [8] > 100 µM | [9] > 100 µM | [10] > 100 µM | [11] > 100 µM | [12] > 100 µM | [13] > 100 µM | [14] > 100 µM | [15] > 100 µM | [16] > 100 µM

COC(=O)C1=COC(OC2OC(CO)C(O)C(O)C2O)C2C3CN4CCc5c([nH]c6ccccc56)C4(CC12)O3 (stereo unspecified)
inactive: [1] > 100 µM | [17] > 100 µM | [2] > 100 µM | [3] > 100 µM | [4] > 100 µM | [5] > 100 µM | [18] > 100 µM | [6] 46.5 µM | [7] > 100 µM | [8] > 100 µM | [9] > 100 µM | [10] > 100 µM | [11] > 100 µM | [12] > 100 µM | [14] > 100 µM | [15] > 100 µM | [16] > 100 µM

O=C(C=P(c1ccccc1)(c1ccccc1)c1ccccc1)c1ccc(-c2cccc([N+](=O)[O-])c2)s1
inactive: [1] 31.3 µM | [17] > 100 µM | [2] 44 µM | [3] > 100 µM | [4] > 100 µM | [20] 52.5 µM | [5] 83.8 µM | [6] 50 µM | [7] 61.8 µM | [19] 51.5 µM | [8] 70.8 µM | [9] > 100 µM | [10] 57.7 µM | [11] 14 µM | [12] 32.7 µM | [13] 51.1 µM | [14] 42 µM | [15] 37 µM | [16] 67 µM

Cc1cc2c(cc1C)[n+]([O-])c(NCCCN(C)C)c(C#N)[n+]2[O-]
inactive: [1] > 100 µM | [17] 79.1 µM | [2] > 100 µM | [3] > 100 µM | [4] > 100 µM | [20] > 100 µM | [5] > 100 µM | [6] 35.5 µM | [7] 73.3 µM | [19] > 100 µM | [8] > 100 µM | [9] > 100 µM | [10] 68.5 µM | [12] 76.4 µM | [13] 88.3 µM | [14] > 100 µM | [15] 37.5 µM | [16] > 100 µM

CN(C)/C=[N+]1/[C@@H](Cc2ccccc2)C(=O)O[B-]1(F)c1ccccc1 (stereo partly specified)
inactive: [1] > 100 µM | [17] > 100 µM | [2] > 100 µM | [3] > 100 µM | [4] > 100 µM | [5] > 100 µM | [18] > 100 µM | [6] > 100 µM | [7] > 100 µM | [19] > 100 µM | [9] > 100 µM | [10] > 100 µM | [11] > 100 µM | [12] > 100 µM | [13] > 100 µM | [15] > 100 µM | [16] > 100 µM

CN(C)Cc1cc(C(=O)/C=C/c2ccc(Br)cc2)cc(CN(C)C)c1O
inactive: [1] 7.46 µM | [2] 12.2 µM | [3] 4.33 µM | [4] 4.79 µM | [20] 18.7 µM | [5] 13 µM | [18] 15.9 µM | [6] 11.7 µM | [7] 6.14 µM | [19] 14.3 µM | [8] 2.05 µM | [9] 5.28 µM | [10] 13.2 µM | [11] 1.67 µM | [12] 3.24 µM | [13] 13.7 µM | [14] 2.16 µM | [15] 2.43 µM | [16] 1.99 µM

COC1=CC(=O)c2c(CCNC(=O)OCc3ccccc3)n[nH]c2C1=O
inactive: [17] 17.5 µM | [2] 12.1 µM | [3] 22.3 µM | [4] 12.6 µM | [20] 24.2 µM | [5] 34 µM | [18] 2.3 µM | [6] 15.4 µM | [7] 12.4 µM | [19] 2.16 µM | [9] 17.5 µM | [10] 17.8 µM | [11] 18.8 µM | [12] 18.1 µM | [13] 19 µM | [14] 10 µM | [15] 16 µM | [16] 4.54 µM

O=c1oc2c(O)c(O)cc3c(=O)oc4c(O)c(O)cc1c4c23 [ELLAGIC ACID]
inactive: [1] 31.6 µM | [2] > 10 µM | [3] > 10 µM | [4] 18.5 µM | [5] 75.2 µM | [6] 45.4 µM | [7] 92 µM | [8] > 10 µM | [9] 27.2 µM | [10] 57.4 µM | [11] > 10 µM | [12] 29.9 µM | [13] > 10 µM | [14] > 10 µM | [15] > 10 µM | [16] 93.5 µM
